Source: patent publication US10370371B2, “Substituted pyrimidine Bmi-1 inhibitors” (PTC Therapeutics, Inc., priority 2013, dated 2019)

What was measured:
Bmi-1 protein = assay: Sandwich ELISA Assay (Bmi-1 protein level in HT-1080 cells); type: cell-based
Outline: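 HT-1080 cells were treated with compounds (0.5% DMSO final) for 40-48 h at 37 °C. Lysates were assayed by sandwich ELISA: mouse anti-Bmi-1 capture, rabbit anti-Bmi-1 and HRP anti-rabbit detection, TMB read at OD450 (OD570 reference). Levels were quantified against a recombinant GST-Bmi-1 standard curve (125-8000 pg/mL).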

Row | SMILES | EC50 (Bmi-1 protein) [nM] | melting point [°C]
1 | Cc1nc2ccc(F)cn2c1-c1cc(N)nc(Nc2ccc(OC(F)F)cc2)n1 [Cpd 2, N^2-[4-(difluoromethoxy)phenyl]-6-(6-fluoro-2-methylimidazo[1,2-a]pyridin-3-yl)pyrimidine-2,4-diamine] | 1 to 10 | 189 to 190
2 | Cc1nc2ccc(F)cc2n1-c1cc(N)nc(Nc2ccc(OC(F)F)cc2)n1 [Cpd 5, N^2-[4-(difluoromethoxy)phenyl]-6-(6-fluoro-2-methyl-1H-benzimidazol-1-yl)pyrimidine-2,4-diamine] | 10 to 100 | 141 to 143
3 | CCc1nc2ccc(F)cc2n1-c1cc(N)nc(Nc2ccc(OC(F)F)c(F)c2)n1 [Cpd 11, N^2-[4-(difluoromethoxy)-3-fluorophenyl]-6-(2-ethyl-6-fluoro-1H-benzimidazol-1-yl)pyrimidine-2,4-diamine] | 10 to 100 | 159 to 161
4 | Nc1cc(-n2c(C3CC3)nc3ccc(F)cc32)nc(Nc2ccc(OC(F)F)c(F)c2)n1 [Cpd 12, 6-(2-cyclopropyl-6-fluoro-1H-benzimidazol-1-yl)-N^2-[4-(difluoromethoxy)-3-fluorophenyl]pyrimidine-2,4-diamine] | 10 to 100 | 185 to 186
5 | Nc1cc(-n2c(C(F)F)nc3ccc(F)cc32)nc(Nc2ccc(C(F)(F)F)cc2)n1 [Cpd 33, 6-[2-(difluoromethyl)-6-fluoro-1H-benzimidazol-1-yl]-N^2-[4-(trifluoromethyl)phenyl]pyrimidine-2,4-diamine] | 10 to 100 | 201 to 203
6 | Nc1cc(-n2c(C3CC3)nc3ccc(F)cc32)nc(Nc2ccc(OC(F)F)cc2)n1 [Cpd 70, 6-(2-cyclopropyl-6-fluoro-1H-benzimidazol-1-yl)-N^2-[4-(difluoromethoxy)phenyl]pyrimidine-2,4-diamine] | 10 to 100 | 177 to 179
7 | CCc1nc2ccc(F)cc2n1-c1cc(N)nc(Nc2ccc(OC(F)F)cc2)n1 [Cpd 71, N^2-[4-(difluoromethoxy)phenyl]-6-(2-ethyl-6-fluoro-1H-benzimidazol-1-yl)pyrimidine-2,4-diamine] | 10 to 100 | 171 to 173
8 | CC(C)c1nc2ccccc2n1-c1cc(N)nc(Nc2ccc(C(F)(F)F)cc2)n1 [Cpd 74, 6-[2-(propan-2-yl)-1H-benzimidazol-1-yl]-N^2-[4-(trifluoromethyl)phenyl]pyrimidine-2,4-diamine] | 100 to 3000 | 168 to 171
9 | COCc1nc2ccc(F)cc2n1-c1cc(N)nc(Nc2ccc(OC(F)F)cc2)n1 [Cpd 78, N^2-[4-(difluoromethoxy)phenyl]-6-[6-fluoro-2-(methoxymethyl)-1H-benzimidazol-1-yl]pyrimidine-2,4-diamine] | 10 to 100 | 120 to 122
10 | CC(C)c1nc2ccc(F)cc2n1-c1cc(N)nc(Nc2ccc(OC(F)F)cc2)n1 [Cpd 79, N^2-[4-(difluoromethoxy)phenyl]-6-[6-fluoro-2-(propan-2-yl)-1H-benzimidazol-1-yl]pyrimidine-2,4-diamine] | 10 to 100 | 167 to 169
11 | Nc1cc(-n2c(C3CC3)nc3cc(F)ccc32)nc(Nc2ccc(OC(F)F)cc2)n1 [Cpd 80, 6-(2-cyclopropyl-5-fluoro-1H-benzimidazol-1-yl)-N^2-[4-(difluoromethoxy)phenyl]pyrimidine-2,4-diamine] | 10 to 100 | 136 to 138
12 | CC(C)c1nc2cc(F)ccc2n1-c1cc(N)nc(Nc2ccc(OC(F)F)cc2)n1 [Cpd 81, N^2-[4-(difluoromethoxy)phenyl]-6-[5-fluoro-2-(propan-2-yl)-1H-benzimidazol-1-yl]pyrimidine-2,4-diamine] | 100 to 3000 | 118 to 120
13 | Nc1cc(-n2c(C3CC3)nc3cc(F)ccc32)nc(Nc2ccc(C(F)(F)F)cc2)n1 [Cpd 103, 6-(2-cyclopropyl-5-fluoro-1H-benzimidazol-1-yl)-N^2-[4-(trifluoromethyl)phenyl]pyrimidine-2,4-diamine] | 10 to 100 | 237 to 238
14 | Cc1nc2cc(F)ccc2n1-c1cc(N)nc(Nc2ccc(OC(F)F)c(F)c2)n1 [Cpd 105, N^2-[4-(difluoromethoxy)-3-fluorophenyl]-6-(5-fluoro-2-methyl-1H-benzimidazol-1-yl)pyrimidine-2,4-diamine] | 10 to 100 | 172 to 173
15 | COc1ccn2nc(C3CC3)c(-c3cc(N)nc(Nc4ccc(C(F)(F)F)cc4)n3)c2c1 [Cpd 106, 6-(2-cyclopropyl-5-methoxypyrazolo[1,5-a]pyridin-3-yl)-N^2-[4-(trifluoromethyl)phenyl]pyrimidine-2,4-diamine] | 100 to 3000 | 172 to 174
16 | Cc1ccc(Nc2nc(N)cc(-c3c(C)noc3C)n2)cc1 [Cpd 190, 6-(3,5-dimethyl-1,2-oxazol-4-yl)-N^2-(4-methylphenyl)pyrimidine-2,4-diamine] | 100 to 3000 | 
17 | Cc1nc2cc(F)ccc2n1-c1cc(N)nc(Nc2ccc(Cl)cc2)n1 [Cpd 191, N^2-(4-chlorophenyl)-6-(5-fluoro-2-methyl-1H-benzimidazol-1-yl)pyrimidine-2,4-diamine] | 100 to 3000 | 
18 | Cc1nc2cc(F)c(F)cc2n1-c1cc(N)nc(Nc2ccc([N+](=O)[O-])cc2)n1 [Cpd 194, 6-(5,6-difluoro-2-methyl-1H-benzimidazol-1-yl)-N^2-(4-nitrophenyl)pyrimidine-2,4-diamine] | 100 to 3000 | 
19 | Cc1cccc(Nc2nc(N)cc(-n3c(C)nc4cc(F)c(F)cc43)n2)c1 [Cpd 195, 6-(5,6-difluoro-2-methyl-1H-benzimidazol-1-yl)-N^2-(3-methylphenyl)pyrimidine-2,4-diamine] | 100 to 3000 | 
20 | COc1cccc(Nc2nc(N)cc(-n3c(C)nc4cc(F)c(F)cc43)n2)c1 [Cpd 196, 6-(5,6-difluoro-2-methyl-1H-benzimidazol-1-yl)-N^2-(3-methoxyphenyl)pyrimidine-2,4-diamine] | 100 to 3000 | 
21 | COc1ccc(Nc2nc(N)c(Cl)c(-n3c(C)nc4ccccc43)n2)cc1 [Cpd 197, 5-chloro-N^2-(4-methoxyphenyl)-6-(2-methyl-1H-benzimidazol-1-yl)pyrimidine-2,4-diamine] | 100 to 3000 | 
22 | Cc1noc(C)c1-c1cc(N)nc(Nc2ccc(Cl)cc2)n1 [Cpd 198, N^2-(4-chlorophenyl)-6-(3,5-dimethylisoxazol-4-yl)pyrimidine-2,4-diamine] | 100 to 3000 | 
23 | Cc1nc2cc(F)ccc2n1-c1cc(N)[n+]([O-])c(Nc2ccc(C(F)(F)F)cc2)n1 [Cpd 199, 6-(5-fluoro-2-methyl-1H-benzimidazol-1-yl)-N^2-[4-(trifluoromethyl)phenyl]pyrimidine-2,4-diamine 3-oxide] | 100 to 3000 | 

Second part, the compound after the results:

Row | EC50 (Bmi-1 protein) [nM] | melting point [°C] | SMILES
24 | 100 to 3000 | 242 to 245 | Nc1cc(-c2c(C(F)F)nc3ccc(F)cn23)nc(Nc2ccc(C(F)(F)F)cc2)n1 [Cpd 63, 6-[2-(difluoromethyl)-6-fluoroimidazo[1,2-a]pyridin-3-yl]-N^2-[4-(trifluoromethyl)phenyl]pyrimidine-2,4-diamine]
25 | 100 to 3000 | 209 to 211 | COCc1nc2ccccc2n1-c1cc(N)nc(Nc2ccc(C(F)(F)F)cc2)n1 [Cpd 73, 6-[2-(methoxymethyl)-1H-benzimidazol-1-yl]-N^2-[4-(trifluoromethyl)phenyl]pyrimidine-2,4-diamine]
26 | 1 to 10 | 114 to 115 | Nc1cc(-n2c(C(F)F)nc3ccccc32)nc(Nc2ccc(OC(F)F)cc2)n1 [Cpd 88, N^2-[4-(difluoromethoxy)phenyl]-6-[2-(difluoromethyl)-1H-benzimidazol-1-yl]pyrimidine-2,4-diamine]
27 | 10 to 100 | 184 to 187 | CC(C)c1nc2ccccc2n1-c1cc(N)nc(Nc2ccc(OC(F)F)cc2)n1 [Cpd 89, N^2-[4-(difluoromethoxy)phenyl]-6-[2-(propan-2-yl)-1H-benzimidazol-1-yl]pyrimidine-2,4-diamine]
28 | 10 to 100 | 153 to 157 | CCc1nn2ccc(F)cc2c1-c1cc(N)nc(Nc2ccc(C(F)(F)F)cc2)n1 [Cpd 111, 6-(2-ethyl-5-fluoropyrazolo[1,5-a]pyridin-3-yl)-N^2-[4-(trifluoromethyl)phenyl]pyrimidine-2,4-diamine]
29 | 100 to 3000 | 270 to 273 | Cc1nn2c(=O)n(C)c(C)cc2c1-c1cc(N)nc(Nc2ccc(C(F)(F)F)cc2)n1 [Cpd 117, 3-(6-amino-2-{[4-(trifluoromethyl)phenyl]amino}pyrimidin-4-yl)-2,5,6-trimethylpyrazolo[1,5-c]pyrimidin-7(6H)-one]
30 | 100 to 3000 | 181 to 183 | Nc1cc(-c2c(C3CC3)nn3ccccc23)nc(Nc2ccc(C(F)(F)F)cc2)n1 [Cpd 126, 6-(2-cyclopropylpyrazolo[1,5-a]pyridin-3-yl)-N^2-[4-(trifluoromethyl)phenyl]pyrimidine-2,4-diamine]
31 | ≤ 1 | 149 to 150 | COc1ccc(Nc2nc(N)cc(-n3c(C)nc4ccccc43)n2)cc1 [Cpd 129, N^2-(4-methoxyphenyl)-6-(2-methyl-1H-benzimidazol-1-yl)pyrimidine-2,4-diamine]
32 | 10 to 100 |  | Cc1ccc(Nc2nc(N)cc(-n3c(C)nc4cc(C)c(C)cc43)n2)cc1 [Cpd 183, N^2-(4-methylphenyl)-6-(2,5,6-trimethyl-1H-benzimidazol-1-yl)pyrimidine-2,4-diamine]
33 | 100 to 3000 |  | Cc1nc2cc(F)ccc2n1-c1cc(N)nc(Nc2ccc(Cl)c(F)c2)n1 [Cpd 192, N^2-(4-chloro-3-fluorophenyl)-6-(5-fluoro-2-methyl-1H-benzimidazol-1-yl)pyrimidine-2,4-diamine]
34 | 100 to 3000 |  | Cc1nc2cc(F)c(F)cc2n1-c1cc(N)nc(Nc2cccc(Cl)c2)n1 [Cpd 193, N^2-(3-chlorophenyl)-6-(5,6-difluoro-2-methyl-1H-benzimidazol-1-yl)pyrimidine-2,4-diamine]
